test system: mannose isomerase; test: thermal and pH stability of the enzyme of the invention (residual activity); format: physicochemical, Pseudomonas sp. AM-9582; conditions: presence of calcium ions
Method: The residual activities after heating treatment at 60° C. for 5, 10, 15, 20, 30 minutes in 0.05M Tris buffer (pH 7.0) are, about 90%, 68%, 52%, 42%, 30% respectively.
The residual activity was measured after the enzyme was incubated in 0.1M buffer (acetate or phosphate buffer) of various pH at room temperature (25° C.) for 3 hours. As the result, it is stable in the pH range 6 to 9.
(§1) Into 0.5 ml of a 0.1M phosphate buffer (pH 7.0) containing 0.2M mannose dissolved therein is added a suitable amount of the enzyme, the total volume is made up with water to 1.0 ml, and the reaction mixture is incubated at 50° C. The amount of fructose formed is determined by the cysteine-carbazole method. The amount of the enzyme forming 1 micromole of fructose per one minute under this condition is defined as one unit.

| SMILES | Effect on thermal stability of the enzyme |
| --- | --- |
| [Ca+2] [calcium ions] | increases the thermal stability |

test system: mannose isomerase; test: mannose isomerase activity of the enzyme of the invention (optimum conditions, substrates, inhibitors); format: biochemical, Pseudomonas sp. AM-9582; conditions: not given
Method: It is active in a pH range from about 6 to 11, but the optimum pH is about 8 (under the reaction condition of 50° C. for 30 minutes, in 0.1M phosphate buffer).
It is active up to about 70° C., but the optimum temperature is about 55° C. under the reaction conditions of 0.1M mannose, 0.05M Tris buffer (pH 7.0) for 30 minutes.
as §1

| SMILES | Substrate specificity (activity of the enzyme on the sugar) |
| --- | --- |
| C[C@@H](O)[C@H](O)[C@H](O)[C@@H](O)C=O [D-fucose] | not substantially |
| O=C[C@@H](O)[C@@H](O)[C@H](O)[C@H](O)CO [D-mannose] | active |

Second part, the compound after the results:

| Substrate specificity (activity of the enzyme on the sugar) | SMILES |
| --- | --- |
| not substantially | O=C[C@@H](O)[C@H](O)[C@H](O)CO [D-arabinose] |
| not substantially | O=C[C@H](O)[C@@H](O)[C@H](O)[C@H](O)CO [D-glucose] |
| active | O=C[C@@H](O)[C@@H](O)[C@H](O)CO [D-lyxose] |
| not substantially | C[C@@H](O)[C@@H](O)[C@H](O)[C@H](O)C=O [D-rhamnose] |
| not substantially | O=C[C@H](O)[C@H](O)[C@H](O)CO [D-ribose] |
| not substantially | O=C[C@H](O)[C@@H](O)[C@H](O)CO [D-xylose] |
| not substantially | O=C[C@H](O)[C@@H](O)[C@@H](O)CO [L-arabinose] |
| not substantially | C[C@H](O)[C@@H](O)[C@@H](O)[C@H](O)C=O [L-fucose] |
| not substantially | C[C@H](O)[C@H](O)[C@@H](O)[C@@H](O)C=O [L-rhamnose] |
| not substantially | O=C[C@@H](O)[C@H](O)[C@@H](O)CO [L-xylose] |

same assay, conditions: 5×10^-3 M of inhibitor

| SMILES | Inhibition of the enzyme |
| --- | --- |
| O=[N+]([O-])[O-].[Ag+] [AgNO3] | strongly inhibited |
| [Cl][Al]([Cl])[Cl] [AlCl3] | strongly inhibited |
| O=S(=O)([O-])[O-].[Fe+2] [FeSO4] | strongly inhibited |
| [Cl][Hg][Cl] [HgCl2] | strongly inhibited |
| O=C(O)c1cc[c]([Hg][Cl])cc1 [p-chloromercury benzoate] | strongly inhibited |

test system: Salmonella; test: not given; conditions: cited from earlier work

| SMILES | Growth of Salmonella |
| --- | --- |
| O=C[C@@H](O)[C@@H](O)[C@H](O)[C@H](O)CO [D-mannose] | inhibits the growth |
